For orientation: IC50 means the concentration needed to halve the response being measured.

Some results are limits rather than exact numbers.

The target of one test is IDH1 R132H (Homo sapiens, UniProt O75874, R132H). As to the kind of experiment: In vitro NADPH depletion assay for IDH1m R132H inhibitors. The class given is biochemical. The following applies: enzyme, diaphorase/resazurin readout, read-out: IDH R132H IC50. As to the method: A test compound is prepared as 10 mM stock in DMSO and diluted to 50× final concentration in DMSO, for a 50 μl reaction mixture. IDH enzyme activity converting alpha-ketoglutarate to 2-hydroxyglutaric acid is measured using a NADPH depletion assay. In the assay the remaining cofactor is measured at the end of the reaction with the addition of a catalytic excess of diaphorase and resazurin, to generate a fluorescent signal in proportion to the amount of NADPH remaining. IDH1-R132 homodimer enzyme is diluted to […] in 40 μl of Assay Buffer(150 mM NaCl, 20 mM Tris-Cl pH 7.5, 10 mM MgCl2, 0.05% BSA, 2 mM b-mercaptoethanol); 1 μl of test compound dilution in DMSO is added and the mixture is incubated for 60 minutes at room temperature. The reaction is started with the addition of 10 μl of Substrate Mix ([…], 5 mM alpha-ketoglutarate, in Assay Buffer) and the mixture is incubated for 90 minutes at room temperature. The reaction is terminated with the addition of 25 μl of Detection Buffer (36 μg/ml diaphorase, […], in 1× Assay Buffer), and is incubated for 1 minute before reading on a SpectraMax platereader at Ex544/Em590.
Sequence of IDH1 R132H (O75874 whole entry R132H): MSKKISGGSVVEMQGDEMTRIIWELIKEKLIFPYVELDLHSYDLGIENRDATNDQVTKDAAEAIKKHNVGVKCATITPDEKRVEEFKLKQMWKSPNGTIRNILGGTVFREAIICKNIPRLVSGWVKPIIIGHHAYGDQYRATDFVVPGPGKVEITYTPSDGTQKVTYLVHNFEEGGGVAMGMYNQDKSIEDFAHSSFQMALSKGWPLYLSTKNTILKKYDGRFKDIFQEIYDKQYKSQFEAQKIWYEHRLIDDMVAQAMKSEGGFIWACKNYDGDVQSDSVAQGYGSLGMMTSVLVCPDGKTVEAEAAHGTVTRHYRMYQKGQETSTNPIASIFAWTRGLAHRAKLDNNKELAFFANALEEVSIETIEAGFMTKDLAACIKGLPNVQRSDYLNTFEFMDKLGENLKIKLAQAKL
Representative compounds of formula I set forth in Table 1 were tested in this assay and the results are set forth below in Table 3.
In general terms: Alamar Blue is a resazurin reagent that responds to reducing activity.

Another test has as its system HT1080 cells. Briefly: Cellular assay, inhibition of 2-HG production (LC-MS) in HT1080 cells. The class given is cell-based. The following applies: Homo sapiens, HT-1080, 48 hours, LC-MS of media. On the procedure: Cells (HT1080 or U87MG) are grown in T125 flasks in DMEM containing 10% FBS, 1× penicillin/streptomycin and 500 ug/mL G418 (present in U87MG cells only). They are harvested by trypsin and seeded into 96 well white bottom plates at a density of 5000 cell/well in 100 μl/well in DMEM with 10% FBS. No cells are placed in columns 1 and 12. Cells are incubated overnight at 37° C. in 5% CO2. The next day test compounds are made up at 2× the final concentration and 100 μl are added to each cell well. The final concentration of DMSO is 0.2% and the DMSO control wells are plated in row G. The plates are then placed in the incubator for 48 hours. At 48 hours, 100 μl of media is removed from each well and analyzed by LC-MS for 2-HG concentrations. The cell plate is placed back in the incubator for another 24 hours. At 72 hours post compound addition, 10 mL/plate of Promega Cell Titer Glo reagent is thawed and mixed. The cell plate is removed from the incubator and allowed to equilibrate to room temperature. Then 100 μl of Promega Cell Titer Glo reagent is added to each well of media. The cell plate is then placed on an orbital shaker for 10 minutes and then allowed to sit at room temperature for 20 minutes. The plate is then read for luminescence with an integration time of 500 ms.
The IC50 for inhibition of 2-HG production (concentration of test compound to reduce 2HG production by 50% compared to control) in these two cell lines for various compounds of formula I is set forth in Table 2 above.

Consider `O=C(NC1CC(F)(F)C1)[C@@H](c1ccccc1Cl)N(C(=O)[C@@H]1Cc2ccccc2N1)c1cc(F)cc(F)c1` (single isomer, unassigned) [Compound 117], for which the half-inhibitory concentration (IC50) on IDH1 R132H lay within 100 to 500 nM. As for `O=C(NC1CC(F)(F)C1)[C@H](c1ccccc1Cl)N(C(=O)[C@@H]1Cc2ccccc2N1)c1cc(F)cc(F)c1` (single isomer, unassigned) [Compound 118], the IC50 in the test with HT1080 cells and at IDH1 R132H was 100 to 500 nM throughout. On to `O=C(NC1CC(F)(F)C1)C(c1ccccc1Cl)N(C(=O)[C@@H]1CCCc2nccn21)c1cccc(F)c1` (stereo in doubt) [Compound 41], for which the IC50 with HT1080 cells is 100 to 500 nM; at IDH1 R132H, no more than 100 nM. With `Cc1ccccc1[C@@H](C(=O)NC1CCCCC1)N(C(=O)[C@@H]1CCCN1S(C)(=O)=O)c1cccc(F)c1` [Compound 1], the IC50 on IDH1 R132H lay in the range of 500 to 1000 nM. Turning to `Cc1ccccc1[C@@H](C(=O)NC1CCCCC1)N(C(=O)[C@H]1CCCN1S(C)(=O)=O)c1cccc(F)c1` [Compound 2], the IC50 in the test with HT1080 cells is 1000 to 2000 nM; at IDH1 R132H, 100 to 500 nM. In the case of `CNC(=O)N1CCCC[C@@H]1C(=O)N(c1cccc(F)c1)[C@H](C(=O)NC1CCCCC1)c1ccccc1C` [Compound 3], the 50% inhibitory concentration (IC50) on IDH1 R132H lay in the range of 500 to 1000 nM. `Cc1ccccc1[C@@H](C(=O)NC1CCCCC1)N(C(=O)[C@H]1CCCCN1C(=O)N(C)C)c1cccc(F)c1` [Compound 4]: at IDH1 R132H, the IC50 lay within 500 to 1000 nM. `COC(=O)N(C)[C@@H](C)C(=O)N(c1cccc(F)c1)[C@H](C(=O)NC1CCCCC1)c1ccccc1C` [Compound 5]: the half-inhibitory concentration (IC50) was 500 to 1000 nM in the test with HT1080 cells and no more than 100 nM at IDH1 R132H. As for `CCS(=O)(=O)NCC(=O)N(c1cccc(F)c1)C(C(=O)NC1CCCCC1)c1ccccc1C` (stereo not shown) [Compound 6], the IC50 in the test with HT1080 cells lay within 1000 to 2000 nM; on IDH1 R132H, 100 to 500 nM. As to `Cc1ccccc1C(C(=O)NC1CCCCC1)N(C(=O)CNC(=O)OC(C)(C)C)c1cccc(F)c1` (stereo not shown) [Compound 7], the IC50 at IDH1 R132H was in the range of 500 to 1000 nM. For `Cc1ccccc1C(C(=O)NC1CCCCC1)N(C(=O)CCNC(=O)OC(C)(C)C)c1cccc(F)c1` (stereo not shown) [Compound 8], the IC50 at IDH1 R132H lay in the range of 500 to 1000 nM. In the case of `CC(=O)N1CCC[C@H]1C(=O)N(c1cccc(F)c1)[C@H](C(=O)NC1CCCCC1)c1ccccc1C` [Compound 9], the half-maximal inhibitory concentration (IC50) with HT1080 cells lay within 1000 to 2000 nM; at IDH1 R132H it was 100 to 500 nM. Turning to `CC(=O)N1CCC[C@@H]1C(=O)N(c1cccc(F)c1)[C@H](C(=O)NC1CCCCC1)c1ccccc1C` [Compound 10], at IDH1 R132H, the IC50 was 100 to 500 nM. Take `Cc1ccccc1C(C(=O)NC1CCC(F)(F)CC1)N(C(=O)Cn1ccnc1C(F)(F)F)c1cccc(F)c1` (stereo not shown) [Compound 11]: the IC50 with HT1080 cells lay within 500 to 1000 nM; at IDH1 R132H, 100 to 500 nM. On to `COC(=O)NCCC(=O)N(c1cccc(F)c1)C(C(=O)NC1CCCCC1)c1ccccc1C` (stereo not shown) [Compound 12], for which, on IDH1 R132H, the IC50 lay within 100 to 500 nM. Same read-out and setting: for `CNC(=O)N1CCC[C@@H]1C(=O)N(c1cccc(F)c1)[C@H](C(=O)NC1CCCCC1)c1ccccc1C` [Compound 13] the value was 500 to 1000 nM; for `Cc1ccccc1[C@@H](C(=O)NC1CCCCC1)N(C(=O)[C@H]1CCCN1)c1cccc(F)c1` [Compound 14], 500 to 1000 nM; for `Cc1ccccc1C(C(=O)NC1CC2CC2C1)N(C(=O)CNc1cccnc1F)c1cccc(F)c1` (stereo not shown) [Compound 15], 100 to 500 nM. `Cc1ccccc1C(C(=O)NC1CCC(F)(F)CC1)N(C(=O)CNc1cccnc1F)c1cccc(F)c1` (stereo not shown) [Compound 16] displayed an IC50 in the test on HT1080 cells of 100 to 500 nM.

For `Cc1ccccc1C(C(=O)NC1CC(F)(F)C1)N(C(=O)CNc1ncccc1F)c1cccc(F)c1` (stereo not shown) [Compound 17], the IC50 in the test with HT1080 cells and on IDH1 R132H was 100 to 500 nM each time. For `Cc1ccccc1C(C(=O)NC1CC(F)(F)C1)N(C(=O)Cn1ccnc1C)c1cccc(F)c1` (stereo not shown) [Compound 18], the values for the IC50 in the test with HT1080 cells and on IDH1 R132H were 1000 to 2000 nM and 500 to 1000 nM, respectively.

In the case of `Cc1ccccc1C(C(=O)NC1CC(F)(F)C1)N(C(=O)CNc1cccnc1F)c1cccc(F)c1` (stereo not shown) [Compound 19], the concentration for half-maximal inhibition (IC50) with HT1080 cells was 100 to 500 nM. Consider `O=C(NC1CCCCC1)C(c1ccccc1Cl)N(C(=O)c1cc2ccccc2[nH]1)c1cccc(F)c1` (stereo not shown) [Compound 20], for which the half-maximal inhibitory concentration (IC50) on IDH1 R132H was in the range of 500 to 1000 nM. In the test on HT1080 cells, `O=C(NC1CCCCC1)C(c1ccccc1Cl)N(C(=O)Cn1cnc(Cl)c1Cl)c1cccc(F)c1` (stereo not shown) [Compound 21] returned a half-maximal inhibitory concentration (IC50) of 100 to 500 nM.

In the case of `N#Cc1ncn(CC(=O)N(c2cccc(F)c2)C(C(=O)NC2CCCCC2)c2ccccc2Cl)c1C#N` (stereo not shown) [Compound 22], the IC50 in the test on HT1080 cells was 500 to 1000 nM; on IDH1 R132H, 100 to 500 nM. As for `O=C(NC1CCCCC1)C(c1ccccc1Cl)N(C(=O)Cn1cncn1)c1cccc(F)c1` (stereo not shown) [Compound 24], the results for the IC50 in the test with HT1080 cells and at IDH1 R132H were 100 to 500 nM and no more than 100 nM, respectively.

For the compound `Cc1nccn1CC(=O)N(c1cccc(-c2nnco2)c1)C(C(=O)NC1CCCCC1)c1ccccc1Cl` (stereo not shown) [Compound 25, N-(3-(1,3,4-oxadiazol-2-yl)phenyl)-N-(1-(2-chlorophenyl)-2-(cyclohexylamino)-2-oxoethyl)-2-(2-methyl-1H-imidazol-1-yl)acetamide], the IC50 in the test on HT1080 cells was 1000 to 2000 nM; on IDH1 R132H it was 100 to 500 nM. As for `Cc1nccn1CC(=O)N(c1cccc2[nH]ncc12)C(C(=O)NC1CCCCC1)c1ccccc1Cl` (stereo not shown) [Compound 26], the IC50 with HT1080 cells lay within 1000 to 2000 nM; at IDH1 R132H it was 100 to 500 nM. With `N#Cc1cccc(N(C(=O)Cn2cnc(Cl)c2Cl)C(C(=O)NC2CCCCC2)c2ccccc2Cl)c1` (stereo not shown) [Compound 27], the figures for the IC50 with HT1080 cells and on IDH1 R132H were 500 to 1000 nM and 100 to 500 nM, respectively. On to `N#Cc1ccccc1C(C(=O)NC1CCCCC1)N(C(=O)Cn1cnc(Cl)c1Cl)c1cccc(F)c1` (stereo not shown) [Compound 28], for which the IC50 on IDH1 R132H fell in the range of 100 to 500 nM. As to `O=C(NC1CCCCC1)C(c1ccc(F)cc1F)N(C(=O)Cn1cnc(Cl)c1Cl)c1ccc(F)c(F)c1` (stereo not shown) [Compound 30, N-cyclohexyl-2-(2-(4,5-dichloro-1H-imidazol-1-yl)-N-(3,4-difluorophenyl)acetamido)-2-(2,4-difluorophenyl)acetamide], the IC50 lay in the range of 500 to 1000 nM in the test on HT1080 cells and 100 to 500 nM on IDH1 R132H. The like results for `O=C(NC1CCCCC1)C(c1ccccc1Cl)N(C(=O)C1CCc2ccccc2N1)c1cccc(F)c1` (stereo not shown) [Compound 31, N-(1-(2-chlorophenyl)-2-(cyclohexylamino)-2-oxoethyl)-N-(3-fluorophenyl)-1,2,3,4-tetrahydroquinoline-2-carboxamide] were, in that order, 100 to 500 nM and no more than 100 nM. Take `O=C(NC1CCC(F)(F)CC1)C(c1ccccc1Cl)N(C(=O)c1cc2ccccc2[nH]1)c1cccc(F)c1` (stereo not shown) [Compound 34]: the 50% inhibitory concentration (IC50) at IDH1 R132H is 500 to 1000 nM.

`O=C(NC1CCC(F)(F)CC1)C(c1ccccc1Cl)N(C(=O)Cn1cncn1)c1ccc(F)c(F)c1` (stereo not shown) [Compound 37]: on IDH1 R132H, the 50% inhibitory concentration (IC50) lay in the range of 100 to 500 nM. Turning to `O=C(NC1CCC(F)(F)CC1)C(c1ccccc1Cl)N(C(=O)Cn1cnc(Cl)c1Cl)c1ccc(F)c(F)c1` (stereo not shown) [Compound 38], at IDH1 R132H, the IC50 was 100 to 500 nM. For the compound `CC(C)(C)OC(=O)N1CCC[C@H]1C(=O)N(c1cccc(F)c1)[C@H](C(=O)NC1CC(F)(F)C1)c1ccccc1Cl` [Compound 39], the IC50 on IDH1 R132H lay in the range of 500 to 1000 nM.

As to `O=C(NC1CC(F)(F)C1)C(c1ccccc1Cl)N(C(=O)c1cccc2nccn12)c1cccc(F)c1` (stereo not shown) [Compound 40], the half-maximal inhibitory concentration (IC50) on IDH1 R132H was in the range of 500 to 1000 nM. Turning to `CC(C)(C)OC(=O)N1CCC[C@H]1C(=O)N(c1cccc(F)c1)[C@H](C(=O)NC1CCC(F)(F)CC1)c1ccccc1Cl` [Compound 44], the IC50 on IDH1 R132H was 500 to 1000 nM. Same read-out and setting: for `CNS(=O)(=O)c1cccc(N(C(=O)[C@@H]2CCCN2C(=O)OC)[C@H](C(=O)NC2CC(F)(F)C2)c2ccccc2Cl)c1` [Compound 58] the value was 100 to 500 nM; for `Cc1nccn1CC(=O)N(c1cccc(F)c1)C(C(=O)NC1CC(F)(F)C1)c1ccccc1Cl` (stereo not shown) [Compound 59], 100 to 500 nM; for `O=C(NC1CC(F)(F)C1)C(c1ccccc1Cl)N(C(=O)CN1CCOC1=O)c1cccc(F)c1` (stereo not shown) [Compound 60, 2-(2-chlorophenyl)-N-(3,3-difluorocyclobutyl)-2-(N-(3-fluoro-phenyl)-2-(2-oxooxazolidin-3-yl)acetamido)acetamide], 500 to 1000 nM. As for `O=C(NC1CC(F)(F)C1)[C@H](c1ccccc1Cl)N(C(=O)C1CCN1c1ncccn1)c1cccc(F)c1` (stereo partly shown) [Compound 103], in the test with HT1080 cells, the half-maximal inhibitory concentration (IC50) is 1000 to 2000 nM.
